# Data reported in patent US6358885B1, “Substituted phenylheterocyclic herbicides” (Mississippi State University, priority 1992, dated 2002).
# Experiments:
# barnyardgrass = assay: Test B preemergence/postemergence greenhouse plant response rating 0 to 10; assay type: in vivo, Echinochloa crus-galli; details: 0 to 10 scale
# Summary of the method: (§1)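 Both application timings were run together: seeds got compound preemergence, and established seedlings (two to eighteen cm) got it postemergence. Non-phytotoxic solvent carried the chemical. Ratings are visual, versus controls, at twelve to sixteen days.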
# blackgrass = assay: as above; assay type: in vivo, Alopecurus myosuroides; details: 0 to 10 scale
# Summary of the method: as §1
# crabgrass = assay: as above; assay type: in vivo, Digitaria spp.; details: 0 to 10 scale
# Summary of the method: as §1
# giant foxtail = assay: as above; assay type: in vivo, Setaria faberii; details: 0 to 10 scale
# Summary of the method: as §1
# rape = assay: as above; assay type: in vivo, Brassica napus; details: 0 to 10 scale
# Summary of the method: as §1
# purple nutsedge = assay: as above; assay type: in vivo, Cyperus rotundus; details: 0 to 10 scale
# Summary of the method: as §1
# corn = assay: Test C preemergence/postemergence greenhouse plant response rating 0 to 100; assay type: in vivo, Zea mays; details: POSTEMERGENCE; for Plant response rating, Corn: 0 to 100 scale
# Summary of the method: (§2)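 Compounds in non-phytotoxic solvent went onto sandy loam before emergence (seeded one day earlier) or onto plants at the one-to-four leaf stage. Duck salad was treated via flood water (~2.5 cm, maintained) over silt loam.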
# morningglory = assay: as above; assay type: in vivo, Ipomoea hederacea; details: POSTEMERGENCE; for Plant response rating, Morningglory: 0 to 100 scale
# Summary of the method: as §2
# wheat = assay: as above; assay type: in vivo, Triticum aestivum; details: POSTEMERGENCE; for Plant response rating, Wheat: 0 to 100 scale
# Summary of the method: as §2
# wild buckwheat = assay: as above; assay type: in vivo, Polygonum convolvulus; details: POSTEMERGENCE; for Plant response rating, Wild buckwheat: 0 to 100 scale
# Summary of the method: as §2
# wild oat = assay: as above; assay type: in vivo, Avena fatua; details: POSTEMERGENCE; for Plant response rating, Wild oat: 0 to 100 scale
# Summary of the method: as §2
# rice = assay: Test C flood test plant response rating 0 to 100; assay type: in vivo, Oryza sativa; details: for Plant response rating (0 to 100), Rice Japonica: under POSTEMERGENCE head (flood test species); for Plant response rating Rice Japonica: flood test species listed under POSTEMERGENCE, 0 to 100 scale
# Summary of the method: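 Compounds in non-phytotoxic solvent applied preemergence to sandy loam one day after planting, postemergence at the 1–4 leaf stage, or to ~2.5 cm floodwater over silt loam.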
compound,measurement,setting,value
C=C(Cl)COc1cc(-c2nn3c(c2Cl)CCCC3)c(F)cc1Cl [Compound 40],"Plant response rating, Barnyardgrass","barnyardgrass; POSTEMERGENCE, Rate 50 g/ha",4
same,"Plant response rating, Barnyardgrass","barnyardgrass; POSTEMERGENCE, Rate 200 g/ha",4
same,"Plant response rating, Barnyardgrass","barnyardgrass; PREEMERGENCE, Rate 50 g/ha",1
same,"Plant response rating, Barnyardgrass","barnyardgrass; Rate 200 g/ha, PREEMERGENCE",3
same,"Plant response rating, Blackgrass","blackgrass; POSTEMERGENCE, Rate 50 g/ha",2
same,"Plant response rating, Blackgrass","blackgrass; POSTEMERGENCE, Rate 200 g/ha",3
same,"Plant response rating, Blackgrass","blackgrass; Rate 200 g/ha, PREEMERGENCE",2
same,"Plant response rating, Crabgrass","crabgrass; POSTEMERGENCE, Rate 50 g/ha",4
same,"Plant response rating, Crabgrass","crabgrass; POSTEMERGENCE, Rate 200 g/ha",5
same,"Plant response rating, Crabgrass","crabgrass; PREEMERGENCE, Rate 50 g/ha",0
same,"Plant response rating, Crabgrass","crabgrass; Rate 200 g/ha, PREEMERGENCE",8
same,"Plant response rating, Giant foxtail","giant foxtail; POSTEMERGENCE, Rate 50 g/ha",5
same,"Plant response rating, Giant foxtail","giant foxtail; PREEMERGENCE, Rate 50 g/ha",9
same,"Plant response rating, Giant foxtail","giant foxtail; Rate 200 g/ha, POSTEMERGENCE",6
same,"Plant response rating, Giant foxtail","giant foxtail; Rate 200 g/ha, PREEMERGENCE",9
same,"Plant response rating, Rape","rape; POSTEMERGENCE, Rate 50 g/ha",4
same,"Plant response rating, Rape","rape; PREEMERGENCE, Rate 50 g/ha",8
same,"Plant response rating, Rape","rape; Rate 200 g/ha, POSTEMERGENCE",8
same,"Plant response rating, Rape","rape; Rate 200 g/ha, PREEMERGENCE",6
same,"Plant response rating, Nutsedge","purple nutsedge; POSTEMERGENCE, Rate 50 g/ha",2
same,"Plant response rating, Nutsedge","purple nutsedge; PREEMERGENCE, Rate 50 g/ha",0
same,"Plant response rating, Nutsedge","purple nutsedge; Rate 200 g/ha, POSTEMERGENCE",4
same,"Plant response rating, Nutsedge","purple nutsedge; Rate 200 g/ha, PREEMERGENCE",0
same,"Plant response rating, Corn",corn; 62 g/ha,30
same,"Plant response rating, Corn",corn; 125 g/ha,30
same,"Plant response rating (0 to 100), Corn",corn; Rate 16 g/ha,30
same,"Plant response rating (0 to 100), Corn",corn; Rate 31 g/ha,30
same,"Plant response rating, Morningglory",morningglory; 62 g/ha,50
same,"Plant response rating, Morningglory",morningglory; 125 g/ha,70
same,"Plant response rating (0 to 100), Morningglory",morningglory; Rate 16 g/ha,50
same,"Plant response rating (0 to 100), Morningglory",morningglory; Rate 31 g/ha,50
same,"Plant response rating, Wheat",wheat; 62 g/ha,40
same,"Plant response rating, Wheat",wheat; 125 g/ha,50
same,"Plant response rating (0 to 100), Wheat",wheat; Rate 16 g/ha,20
same,"Plant response rating (0 to 100), Wheat",wheat; Rate 31 g/ha,30
same,"Plant response rating, Wild buckwheat",wild buckwheat; 62 g/ha,100
same,"Plant response rating, Wild buckwheat",wild buckwheat; 125 g/ha,100
same,"Plant response rating (0 to 100), Wild buckwheat",wild buckwheat; Rate 16 g/ha,50
same,"Plant response rating (0 to 100), Wild buckwheat",wild buckwheat; Rate 31 g/ha,50
same,"Plant response rating, Wild oat",wild oat; 62 g/ha,30
same,"Plant response rating, Wild oat",wild oat; 125 g/ha,40
same,"Plant response rating (0 to 100), Wild oat",wild oat; Rate 16 g/ha,20
same,"Plant response rating (0 to 100), Wild oat",wild oat; Rate 31 g/ha,20
same,"Plant response rating (0 to 100), Rice Japonica",rice; Rate 16 g/ha,35
same,"Plant response rating (0 to 100), Rice Japonica",rice; Rate 31 g/ha,35
same,Plant response rating Rice Japonica,rice; 62 g/ha,40
same,Plant response rating Rice Japonica,rice; 125 g/ha,40
